Assay results from PMC7840908 (Communications Biology, 2021).
Several values for one entry are separate records, joined by “and”; a condition that tells them apart may be missing. Identical values can stand only once.

Legend:
MERS-CoV macro domain [1] = target: T1, MERS-CoV macro domain (Middle East respiratory syndrome-related coronavirus, UniProt K9N638); format: binding
MERS-CoV macro domain [2] = target: T1, MERS-CoV macro domain; format: binding; remark: listed apart in the source
MERS-CoV macro domain [3] = target: T1, MERS-CoV macro domain; format: binding; remark: listed apart in the source
MERS-CoV macro domain [4] = target: T1, MERS-CoV macro domain; format: binding; remark: listed apart in the source
MERS-CoV macro domain [5] = target: T1, MERS-CoV macro domain; format: biochemical

T1 sequence (K9N638 1110-1276 limits assumed): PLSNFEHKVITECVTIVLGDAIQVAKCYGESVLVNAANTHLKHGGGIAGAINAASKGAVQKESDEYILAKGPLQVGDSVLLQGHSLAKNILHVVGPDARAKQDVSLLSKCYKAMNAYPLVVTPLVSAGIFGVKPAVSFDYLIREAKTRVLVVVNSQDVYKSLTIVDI

## Nc1ncnc2c1ncn2C1OC(COP(=O)(O)OP(=O)(O)OCC2OC(O)C(O)C2O)C(O)C1O (stereo not drawn) [ADPR, ADP-ribose]
MERS-CoV macro domain [1]
  Melting temperature (Tm) of the MERS-CoV macro domain in complex, DSF: 49.0 °C
MERS-CoV macro domain [2]
  Melting temperature (Tm) of the MERS-CoV macro domain in complex, CD: 48.8 °C
MERS-CoV macro domain [3]
  entropy contribution: −9.30 ± 17.61 J/mol K
  n (stoichiometry of binding): 1.25 ± 0.08 and 1.20 ± 0.19
MERS-CoV macro domain [4]
  NMR CSP, residue 2: 0.05411
  NMR CSP, residue 3: 0.1983 and 0.2813
  NMR CSP, residue 5: 0.069
  NMR CSP, residue 6: 0.06294 and 0.07046
  NMR CSP, residue 7: 0.1539 and 0.09995
  NMR CSP, residue 8: 0.1145 and 0.09451
  NMR CSP, residue 13: 0.06576 and 0.04291
  NMR CSP, residue 15: 0.1078 and 0.09719
  NMR CSP, residue 16: 0.1514 and 0.1186
  NMR CSP, residue 17: 0.0814 and 0.0623
  NMR CSP, residue 18: 0.08432 and 0.05219
  NMR CSP, residue 19: 0.3848 and 0.3419
  NMR CSP, residue 20: 0.8973 and 0.7322
  NMR CSP, residue 22: 0.3525 and 0.4007
  NMR CSP, residue 23: 0.383
  NMR CSP, residue 25: 0.05156 and 0.08317
  NMR CSP, residue 26: 0.1992 and 0.1277
  NMR CSP, residue 27: 0.03208
  NMR CSP, residue 28: 0.1376 and 0.09301
  NMR CSP, residue 29: 0.03731 and 0.02244
  NMR CSP, residue 31: 0.0401 and 0.04027
  NMR CSP, residue 32: 0.3295 and 0.3317
  NMR CSP, residue 40: 0.1305
  NMR CSP, residue 42: 0.3421 and 0.2454
  NMR CSP, residue 45: 0.9446
  NMR CSP, residue 46: 1.504 and 1.393
  NMR CSP, residue 48: 1.083
  NMR CSP, residue 49: 0.7736
  NMR CSP, residue 50: 0.4669 and 0.3863
  NMR CSP, residue 51: 0.1048 and 0.1583
  NMR CSP, residue 52: 0.2728 and 0.1547
  NMR CSP, residue 53: 0.1687 and 0.136
  NMR CSP, residue 54: 0.08878 and 0.08252
  NMR CSP, residue 55: 0.1049 and 0.106
  NMR CSP, residue 56: 0.1546 and 0.1346
  NMR CSP, residue 57: 0.138 and 0.07814
  NMR CSP, residue 59: 0.122 and 0.1437
  NMR CSP, residue 60: 0.1518 and 0.1952
  NMR CSP, residue 62: 0.2878 and 0.2628
  NMR CSP, residue 63: 0.1045 and 0.05935
  NMR CSP, residue 64: 0.3272 and 0.2442
  NMR CSP, residue 66: 0.09722 and 0.08557
  NMR CSP, residue 67: 0.1931 and 0.1393
  NMR CSP, residue 68: 0.02796 and 0.05038
  NMR CSP, residue 71: 0.06402
  NMR CSP, residue 73: 0.05219
  NMR CSP, residue 74: 0.2006 and 0.1195
  NMR CSP, residue 76: 0.3259 and 0.302
  NMR CSP, residue 77: 0.2091 and 0.1118
  NMR CSP, residue 78: 0.3066 and 0.2179
  NMR CSP, residue 79: 0.2231 and 0.1318
  NMR CSP, residue 81: 0.02964 and 0.02247
  NMR CSP, residue 82: 0.08035 and 0.07748
  NMR CSP, residue 88: 0.05214 and 0.02732
  NMR CSP, residue 90: 0.03514 and 0.02202
  NMR CSP, residue 91: 0.0404 and 0.05921
  NMR CSP, residue 92: 0.2456 and 0.1395
  NMR CSP, residue 93: 0.4982 and 0.3283
  NMR CSP, residue 94: 1.407 and 1.235
  NMR CSP, residue 95: 0.4425 and 0.3726
  NMR CSP, residue 97: 0.5401 and 0.4521
  NMR CSP, residue 100: 0.1106 and 0.08163
  NMR CSP, residue 105: 0.06587
  NMR CSP, residue 106: 0.1936 and 0.1903
  NMR CSP, residue 107: 0.1268 and 0.1117
  NMR CSP, residue 108: 0.06699 and 0.04787
  NMR CSP, residue 110: 0.1341 and 0.1262
  NMR CSP, residue 116: 0.02109 and 0.03031
  NMR CSP, residue 117: 0.04981 and 0.05032
  NMR CSP, residue 120: 0.07982 and 0.07783
  NMR CSP, residue 125: 0.9414 and 0.7836
  NMR CSP, residue 126: 0.4011 and 0.2956
  NMR CSP, residue 127: 0.636 and 0.5379
  NMR CSP, residue 131: 0.2256 and 0.1765
  NMR CSP, residue 132: 0.8759
  NMR CSP, residue 133: 0.6064 and 0.6446
  NMR CSP, residue 135: 0.1312 and 0.07635
  NMR CSP, residue 136: 0.08199 and 0.1121
  NMR CSP, residue 137: 0.1059 and 0.1517
  NMR CSP, residue 138: 0.1473 and 0.115
  NMR CSP, residue 139: 0.07462 and 0.1086
  NMR CSP, residue 140: 0.04879 and 0.03054
  NMR CSP, residue 141: 0.06216 and 0.08925
  NMR CSP, residue 145: 0.2809 and 0.3196
  NMR CSP, residue 148: 0.04359 and 0.06607
  NMR CSP, residue 149: 0.112 and 0.08955
  NMR CSP, residue 150: 0.04 and 0.03962
  NMR CSP, residue 152: 0.255 and 0.1438
  NMR CSP, residue 153: 0.3264 and 0.2803
  NMR CSP, residue 154: 0.8835 and 0.7254
  NMR CSP, residue 155: 0.3976 and 0.2797
  NMR CSP, residue 156: 0.2021
  NMR CSP, residue 157: 0.1187 and 0.09085
  NMR CSP, residue 158: 0.04463 and 0.03077
  NMR CSP, residue 162: 0.06097 and 0.0557
  NMR CSP, residue 163: 0.2144 and 0.1623
  NMR CSP, residue 164: 0.08089 and 0.05482
MERS-CoV macro domain [5]
  Effect on MAR signals in the deMAR reaction: the MAR signals reduced fewer
